From the NIST ThermoML archive (doi:10.1016/j.jct.2016.01.019)

Experiments:
[1] = refractive index (Na D-line) (dimensionless); xn = mol fraction of the nth substance listed; conditions: 94.64 kPa, Liquid, Standard Abbe refractometry
[2] = xn = mol fraction of the nth substance listed; conditions: 94.64 kPa, Liquid, Vibrating tube method

OCCCO [propan-1,3-diol] + CC(O)CO
Conditions | mass density, [2] [kg/m3] | refractive index, [1]
293.15 K, x2 = 0 | 1052.75 | 1.43932
293.15 K, x2 = 0.0985 | 1051.85 | 1.43907
293.15 K, x2 = 0.2023 | 1050.9 | 1.43879
293.15 K, x2 = 0.3015 | 1049.75 | 1.43838
293.15 K, x2 = 0.3961 | 1048.38 | 1.4378
293.15 K, x2 = 0.5009 | 1046.9 | 1.43695
293.15 K, x2 = 0.5961 | 1045.18 | 1.436
293.15 K, x2 = 0.6965 | 1043.35 | 1.43508
293.15 K, x2 = 0.7974 | 1041.33 | 1.4342
293.15 K, x2 = 0.8985 | 1038.71 | 1.4331
298.15 K, x2 = 0 | 1049.67 | 1.43796
298.15 K, x2 = 0.0985 | 1048.71 | 1.4376
298.15 K, x2 = 0.2023 | 1047.71 | 1.43721
298.15 K, x2 = 0.3015 | 1046.51 | 1.43671
298.15 K, x2 = 0.3961 | 1045.09 | 1.43612
298.15 K, x2 = 0.5009 | 1043.57 | 1.43533
298.15 K, x2 = 0.5961 | 1041.79 | 1.43455
298.15 K, x2 = 0.6965 | 1039.9 | 1.43364
298.15 K, x2 = 0.7974 | 1037.77 | 1.43275
298.15 K, x2 = 0.8985 | 1035.15 | 1.43161
303.15 K, x2 = 0 | 1046.55 | 1.43665
303.15 K, x2 = 0.0985 | 1045.54 | 1.43619
303.15 K, x2 = 0.2023 | 1044.49 | 1.43572
303.15 K, x2 = 0.3015 | 1043.23 | 1.43521
303.15 K, x2 = 0.3961 | 1041.76 | 1.43459
303.15 K, x2 = 0.5009 | 1040.18 | 1.4339
303.15 K, x2 = 0.5961 | 1038.34 | 1.43318
303.15 K, x2 = 0.6965 | 1036.39 | 1.4321
303.15 K, x2 = 0.7974 | 1034.25 | 1.4311
303.15 K, x2 = 0.8985 | 1031.52 | 1.43017
308.15 K, x2 = 0 | 1043.45 | 1.43523
308.15 K, x2 = 0.0985 | 1042.36 | 1.43478
308.15 K, x2 = 0.2023 | 1041.24 | 1.43424
308.15 K, x2 = 0.3015 | 1039.93 | 1.43377
308.15 K, x2 = 0.3961 | 1038.41 | 1.43324
308.15 K, x2 = 0.5009 | 1036.78 | 1.43241
308.15 K, x2 = 0.5961 | 1034.87 | 1.43161
308.15 K, x2 = 0.6965 | 1032.85 | 1.43076
308.15 K, x2 = 0.7974 | 1030.65 | 1.42967
308.15 K, x2 = 0.8985 | 1027.85 | 1.42858
313.15 K, x2 = 0 | 1040.32 | 1.43385
313.15 K, x2 = 0.0985 | 1039.16 | 1.4333
313.15 K, x2 = 0.2023 | 1037.97 | 1.43276
313.15 K, x2 = 0.3015 | 1036.61 | 1.43207
313.15 K, x2 = 0.3961 | 1035.02 | 1.43145
313.15 K, x2 = 0.5009 | 1033.34 | 1.43061
313.15 K, x2 = 0.5961 | 1031.36 | 1.43
313.15 K, x2 = 0.6965 | 1029.27 | 1.42906
313.15 K, x2 = 0.7974 | 1027.04 | 1.42818
313.15 K, x2 = 0.8985 | 1024.18 | 1.42699
318.15 K, x2 = 0 | 1037.18 | 1.43255
318.15 K, x2 = 0.0985 | 1035.96 | 1.43195
318.15 K, x2 = 0.2023 | 1034.7 | 1.43131
318.15 K, x2 = 0.3015 | 1033.26 | 1.43057
318.15 K, x2 = 0.3961 | 1031.62 | 1.42992
318.15 K, x2 = 0.5009 | 1029.89 | 1.42921
318.15 K, x2 = 0.5961 | 1027.83 | 1.42848
318.15 K, x2 = 0.6965 | 1025.68 | 1.42752
318.15 K, x2 = 0.7974 | 1023.38 | 1.42653
318.15 K, x2 = 0.8985 | 1020.43 | 1.42545
